Test results taken from PubChem BioAssay AID1845202 (Molecular Pharmacology Branch, DTP, NCI, 2023).

Test system: DMS 114 tumor spheroids, viability % test/control
Experiment: Anticancer human tumor DMS 114 cell line growth inhibition;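 further: spheroids exposed to compounds for 7 days before read-out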;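 on viability, T/C: luminescence used as a proxy for viable cells; 100% = DMSO vehicle control viability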
Conditions: spheroids with HUVEC and MSC; for IC50: curve of first compound; for viability, T/C: stronger effect = lower value
Procedure, shortened: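 Single agents and combinations were tested on spheroids built from tumor cells plus HUVEC and hMSC, at half-log dilutions starting at or near clinical Cmax, else 10 microM; final DMSO 0.25% (v/v).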

SMILES: Cc1cc(C)c(CNC(=O)c2cc(-c3ccc(CN4CCOCC4)cc3)cc3c2cnn3C2CCCC2)c(=O)[nH]1 + CC[C@@]1(O)C(=O)OCc2c1cc1n(c2=O)Cc2cc3c(CN(C)C)c(O)ccc3nc2-1
- IC50 (second compound 0.003 µM): > 10000 nM
- IC50 (second compound 0.00949 µM): > 10000 nM
- IC50 (second compound 0.03 µM): < 31.6 nM
- IC50 (second compound 0.0949 µM): < 31.6 nM
- IC50 (second compound 0.3 µM): < 31.6 nM
- viability, T/C (second compound 0.003 µM, first compound 0.0316 µM): 112%
- viability, T/C (second compound 0.003 µM, first compound 0.1 µM): 117%
- viability, T/C (second compound 0.003 µM, first compound 0.316 µM): 108%
- viability, T/C (second compound 0.003 µM, first compound 1 µM): 106%
- viability, T/C (second compound 0.003 µM, first compound 3.16 µM): 98.2%
- viability, T/C (second compound 0.003 µM, first compound 10 µM): 59.6%
- viability, T/C (second compound 0.00949 µM, first compound 0.0316 µM): 96.2%
- viability, T/C (second compound 0.00949 µM, first compound 0.1 µM): 105%
- viability, T/C (second compound 0.00949 µM, first compound 0.316 µM): 95.4%
- viability, T/C (second compound 0.00949 µM, first compound 1 µM): 97.1%
- viability, T/C (second compound 0.00949 µM, first compound 3.16 µM): 84.9%
- viability, T/C (second compound 0.00949 µM, first compound 10 µM): 58.9%
- viability, T/C (second compound 0.03 µM, first compound 0.0316 µM): 33.3%
- viability, T/C (second compound 0.03 µM, first compound 0.1 µM): 39.5%
- viability, T/C (second compound 0.03 µM, first compound 0.316 µM): 28.3%
- viability, T/C (second compound 0.03 µM, first compound 1 µM): 35.5%
- viability, T/C (second compound 0.03 µM, first compound 3.16 µM): 32.1%
- viability, T/C (second compound 0.03 µM, first compound 10 µM): 30.7%
- viability, T/C (second compound 0.0949 µM, first compound 0.0316 µM): 16%
- viability, T/C (second compound 0.0949 µM, first compound 0.1 µM): 15.5%
- viability, T/C (second compound 0.0949 µM, first compound 0.316 µM): 14.8%
- viability, T/C (second compound 0.0949 µM, first compound 1 µM): 16%
- viability, T/C (second compound 0.0949 µM, first compound 3.16 µM): 17.2%
- viability, T/C (second compound 0.0949 µM, first compound 10 µM): 15.5%
- viability, T/C (second compound 0.3 µM, first compound 0.0316 µM): 9.14%
- viability, T/C (second compound 0.3 µM, first compound 0.1 µM): 9.67%
- viability, T/C (second compound 0.3 µM, first compound 0.316 µM): 9.76%
- viability, T/C (second compound 0.3 µM, first compound 1 µM): 10.1%
- viability, T/C (second compound 0.3 µM, first compound 3.16 µM): 12.1%
- viability, T/C (second compound 0.3 µM, first compound 10 µM): 17.6%

SMILES: O=C(c1cc(Cc2n[nH]c(=O)c3ccccc23)ccc1F)N1CCN(C(=O)C2CC2)CC1 + CC[C@@]1(O)C(=O)OCc2c1cc1n(c2=O)Cc2cc3c(CN(C)C)c(O)ccc3nc2-1
- IC50 (second compound 0.003 µM): 5040 nM
- IC50 (second compound 0.00949 µM): 1830 nM
- IC50 (second compound 0.03 µM): < 94.9 nM
- IC50 (second compound 0.0949 µM): < 94.9 nM
- IC50 (second compound 0.3 µM): < 94.9 nM
- viability, T/C (second compound 0.003 µM, first compound 0.0949 µM): 104%
- viability, T/C (second compound 0.003 µM, first compound 0.3 µM): 98.3%
- viability, T/C (second compound 0.003 µM, first compound 0.949 µM): 96.9%
- viability, T/C (second compound 0.003 µM, first compound 3 µM): 68.6%
- viability, T/C (second compound 0.003 µM, first compound 9.49 µM): 27.3%
- viability, T/C (second compound 0.003 µM, first compound 30 µM): 19.7%
- viability, T/C (second compound 0.00949 µM, first compound 0.0949 µM): 69.3%
- viability, T/C (second compound 0.00949 µM, first compound 0.3 µM): 64.6%
- viability, T/C (second compound 0.00949 µM, first compound 0.949 µM): 64.9%
- viability, T/C (second compound 0.00949 µM, first compound 3 µM): 39.1%
- viability, T/C (second compound 0.00949 µM, first compound 9.49 µM): 23.8%
- viability, T/C (second compound 0.00949 µM, first compound 30 µM): 18%
- viability, T/C (second compound 0.03 µM, first compound 0.0949 µM): 24%
- viability, T/C (second compound 0.03 µM, first compound 0.3 µM): 21.4%
- viability, T/C (second compound 0.03 µM, first compound 0.949 µM): 22.6%
- viability, T/C (second compound 0.03 µM, first compound 3 µM): 17.8%
- viability, T/C (second compound 0.03 µM, first compound 9.49 µM): 13.2%
- viability, T/C (second compound 0.03 µM, first compound 30 µM): 12.6%
- viability, T/C (second compound 0.0949 µM, first compound 0.0949 µM): 12.9%
- viability, T/C (second compound 0.0949 µM, first compound 0.3 µM): 13.9%
- viability, T/C (second compound 0.0949 µM, first compound 0.949 µM): 13.4%
- viability, T/C (second compound 0.0949 µM, first compound 3 µM): 11.2%
- viability, T/C (second compound 0.0949 µM, first compound 9.49 µM): 9.09%
- viability, T/C (second compound 0.0949 µM, first compound 30 µM): 9.45%
- viability, T/C (second compound 0.3 µM, first compound 0.0949 µM): 8.39%
- viability, T/C (second compound 0.3 µM, first compound 0.3 µM): 8.45%
- viability, T/C (second compound 0.3 µM, first compound 0.949 µM): 9.03%
- viability, T/C (second compound 0.3 µM, first compound 3 µM): 6.88%
- viability, T/C (second compound 0.3 µM, first compound 9.49 µM): 5.76%
- viability, T/C (second compound 0.3 µM, first compound 30 µM): 6.93%
